Legend:
[1] = system: autophagosome-lipid droplet colocalization in MEF cells; test: Colocalization of autophagosome and lipid droplets in mCherry-LC3B transfected MEF cells; format: cell-based, mouse; settings: 5 μM, 3 h, compared to DMSO control
Procedure: (1) In MEF cells, mCherry-LC3B was expressed by cDNA plasmid transfection.
(2) OA was added to the culture medium 30 hours after transfection to induce lipid droplets.
(3) Compounds were added to treat cells 6 hours after induction.
(4) 3 hours after compounds addition, cells were fixed and BODIPY stained.
(5) The coverslips laid in the multi-well plates were removed, and imaged with the Zeiss 880 confocal microscope after mounted to observe the aggregation of LC3 puncta around the lipid droplets.
In MEF cells, mCherry-LC3B was expressed by cDNA plasmid transfection. At 30th hour of overexpression, OA was added into cells for lipid droplet induction. 6 hours later, the compound was added for 3 hours' treatment, and then cells were subjected to immunostaining. […] Lipid droplets (green) were stained with BODIPY stain, and nucleus were indicated with DAPI stain. […] In FIG. 24, the colocalized autophagosome-lipid droplet was marked with circles.

NASH mice = test: Effect of the compound on NASH mouse model (CDAHFD); format: in vivo
Procedure: 15-micrometer cryosections were obtained from the liver (see “BODIPY staining of tissues” and processed for visualization of fibrosis by picro-sirius red staining as described in the literature (Sookoian S et al., Fatty Liver Disease Progresses into Severe NASH when Physiological Mechanisms of Tissue Homeostasis Collapse. Ann Hepatol 2018; 17:182-186.). The liver cryosections were washed with 1×PBS and then incubated at room temperature for 1 hour with the solution containing 0.1% vol/vol Direct Red 80 Direct Red 80 (for staining collagen in red as an indicator for liver fibrosis) and 0.04% Fast Green (Sigma-Aldrich, cat. no. F7258, for general protein staining as a background) in saturated aqueous solution of picric acid (Sigma., cat. no. P6744-1GA). The samples were imaged by using an Olympus inverted fluorescence microscope IX73, and the histological fibrosis images were analyzed by the imageJ software.
Experimental animals: ten-week-old C57BL/6 male mice were obtained from Hangzhou Ziyuan Inc. The mice had ad libitum access to water and a choline-deficient, L-amino acid-defined, high-fat diet (CDAHFD) containing 60% kcal fat obtained from Changzhou Shuyishuer Inc. for twelve weeks (including the two-week compound-injection period) to generate the non-alcoholic steatohepatitis (NASH) models.
(§1) Mice were randomly divided into 7 groups, wherein 8 mice in each group, and the mice in each group were subjected to intraperitoneal injection to administer: (1) only vehicle (no DMSO) group: 0% DMSO+39% PEG300 (Selleck, cat. no. S6704)+5% Tween-80 (Selleck, cat. no. S6702)+56% distilled water, (2) DMSO group: 1% DMSO+39% PEG300+5% Tween-80+55% H2O (DMSO vehicle), (3) C3 group: Compound 3A was in DMSO vehicle, (4) C4 group: Compound 4A in DMSO vehicle, (5) SIII group: Sudan III DMSO vehicle, (6) GW5074 group: Compound A1 in DMSO vehicle, (7) DP group: Compound A5 in DMSO vehicle. For groups (3)-(7), the compound (30 mg/kg, administration volume 150 μL) was administered through intraperitoneally injection for consecutive 2 weeks, and once a day. The food and water intake were measured with an analytical electronic balance.
(§2) 24 hours after the time point of the last injection, end point maxillary surface blood sampling was performed on each mouse. All mice were Euthanized by cervical dislocation, and then tissue sample (e.g., liver samples) were obtained and stored in Eppendorf tubes at −80° C. for assay.
(§3) 12 days after initiation of administration, each mouse was scanned by a minispec nuclear magnetic resonance (NMR) instrument (Bruker LF50 II “Minispec” body composition analyzer, Bruker Optics) that was designed for experimental animals, and based on the measurement of solid and liquid parts of the samples, the body fat and lean body weight were determined by this device.
(§4) Serum: Tail vein blood samples (30-50 μL) were left to coagulate in […] blood collection tubes (Jiangsu Kangjian Medical Products Co., Ltd., model KJ002) at room temperature without interference, and then centrifuged at 2,000×g for 10 minutes at 4° C. to remove the clot. Supernatant was collected to obtain the serum.
(§5) Liver: Liver samples were obtained as described in (2). 100 mg of liver tissue was homogenized in 0.9 mL of absolute alcohol under ice-cold conditions, and then centrifuged (2,500 r.p.m/min, 10 min). Supernatant was collected, and then stored at −80° C.
(§6) The kits were used according to the instruction from manufacturer (TAG: TG kit, cat. no. A110-1-1; TC: T-CHO kit, cat. no. A111-1. FFA: NEFA kit, cat. No. A042-2-1; they were all from Nanjing Jiancheng Bioengineering Institute). TAG, TC and FFA levels in serum and liver samples were determined.

db/db mice = test: Effect of the compound on db/db mouse; format: in vivo
From the text: Experimental animals: nineteen-week-old db/db male mice (C57BL/6J-Lepr^db/Lepr^db) were obtained from Shanghai Model Organisms Co., Ltd., and acclimatized for at least 1 week before experiments. The mice had ad libitum access to standard chow and water.
Normal control: The C57BL/6 male mice fed on standard irradiated chow diet (Shuyishuer Inc. cat. no. D12450J) from Changzhou Shuyishuer Biotechnology Co., Ltd. (Shuyishuer Inc.) were used as the normal control.
as §1
Bodyweight was weighed every day.
If time permitted, tail vein blood (30-50 μL) was collected every 1-3 days.
as §2, §3, §4, §5, §6
According to the lipidomic method as described above, the contents of liver total lipid, glycerolipid, sterol lipid, neutral sphingolipid and polar lipid were analyzed. The log 2-fold change (log2 FC) and statistical significance (p-value) relative to the DMSO group were calculated.

[2] = system: lipid droplets in LC3B knockout HEK293T cells; test: Lipid droplets in LC3B knockout HEK293T cells; format: cell-based, human; settings: 5 μM
Procedure: The effect of conjugated compounds (Compound 1A, Compound 2A, Compound 3A or Compound 4A at a concentration of 5 μM) on lipid droplets in LC3B knockout HEK293T cells was tested by a method similar to Example 2.

[3] = system: lipid droplets in 3T3-L1 fat precursor cell differentiated fat cells; test: Lipid droplets in 3T3-L1 fat precursor cell differentiated fat cells; format: cell-based, mouse; settings: 3T3-L1 differentiated fat cells, 24 h
LC3B = LC3B (Homo sapiens, UniProt Q9GZQ8); test: MST detection of affinity activity with LC3B; format: binding; design: His8 (with TEV site) (N); made in house; host or cells: Escherichia coli BL21(DE3)pLysS; settings: MST; read-out: Kd (μM), equilibrium dissociation constant between the conjugated compound and LC3B
Procedure: The recombinant GST-LC3B proteins were prepared and purified, dialyzed into 1×PBS, and then labelled with the red fluorophore with the protein labeling kit RED-NHS (Nanotemper, cat. no. L001).
The MST experiments were performed using the Monolith NT.115 instrument (NanoTemper Technologies). The reaction buffer contains 20 mM HEPES, pH 7.4, 150 mM NaCl, and the protein concentration was 500 nM. The MST data were collected under 40% infrared laser power and 20% light-emitting diode power. The data were analyzed by Nanotemper software.

Q: What does the source list for `O=c1cc(-c2ccccc2)c2c(OCCCCCCCCCCOc3ccc4ccccc4c3/N=N/c3ccc(/N=N/c4ccccc4)cc3)cc(O)cc2o1` [Compound 4A, 7-hydroxy-4-phenyl-5-((10-((1-((E)-(4-((E)-phenyldiazenyl)phenyl)diazenyl)naphthalen-2-yl)oxy)decyl)oxy)-2H-chromen-2-one]?
A: ratio of colocalization of red and green aggregation point (autophagosome-lipid droplet) [1]: significantly increased; liver weight (NASH mice; 30 mg/kg ip): significantly reduced; ratio of body fat/lean body weight (NASH mice; 30 mg/kg ip): significantly reduced; serum and liver TAG levels (NASH mice; 30 mg/kg ip): reduced; serum and liver TC levels (NASH mice; 30 mg/kg ip): reduced; body weight (NASH mice; 30 mg/kg ip once a day, 2 weeks): significantly reduced; liver lipid droplets (NASH mice; 30 mg/kg ip, 14 days): significantly reduced; degree of interstitial fibrosis in liver tissue (picro-sirius staining) (NASH mice; 30 mg/kg ip, 14 days, compared with control compound): significantly reduced; body weight-normalized food intake (db/db mice): marginally significant increase; FFA levels in serum and liver (db/db mice; 30 mg/kg ip): significantly reduced; body weight-normalized food and water intake (db/db mice; 30 mg/kg ip): no significant reduction; weight loss (total body weight) (db/db mice; 30 mg/kg ip once a day, within 2 weeks): about 15%; ratio of body fat/lean body weight (db/db mice; 30 mg/kg ip, 12 days, vs DMSO group): significantly reduced; amount and size of liver lipid droplets (BODIPY493/503) (db/db mice; 30 mg/kg ip, 14 days): significantly reduced; liver weight (db/db mice; 30 mg/kg ip, 14 days, vs DMSO group): significantly reduced; TAG levels in liver and serum (db/db mice; 30 mg/kg ip, vs DMSO group): significantly reduced; TC levels in liver and serum (db/db mice; 30 mg/kg ip, vs DMSO group): significantly reduced; reduction of liver total lipid concentration (liver lipid level) (db/db mice; absolute quantitative lipidomics, vs DMSO group): 41.5±13.9%; TAG in liver (db/db mice; lipidomics): significantly reduced; most glycerolipids, sterol lipids and neutral sphingolipids in liver (db/db mice; lipidomics): reduced; other major neutral lipids, cholesteryl ester (ChE) and diglyceride (DG) in liver (db/db mice; lipidomics): slightly reduced; polar lipids, e.g., glycerophospholipids in liver (db/db mice; lipidomics): did not reduce; PE and PI (db/db mice; liver lipidomics): unaffected; TAG and ChE with different chain carbon numbers or saturated bond numbers (db/db mice; liver lipidomics): all reduced; reduction of lipid droplets induced by conjugated compounds after knockout of LC3B gene [2]: largely blocked; effect of the compound on lipid droplets under the treatment of NH4Cl ([3]; 5 μM + NH4Cl 5 mM): blocked; amount of lipid droplets ([3]; 5 μM): could reduce; size of lipid droplets ([3]; 5 μM): could change; Kd (LC3B): 0.39 µM

Source: patent publication US12582720B2, “Compound for preventing or treating lipid metabolism-related diseases” (Fudan University, priority 2020, dated 2026)
